{
  "source": "patent US6369083B1",
  "about": "“2-methoxyimino-2 (pyrinyloxymethyl) phenyl acetamides with polyether derivatives on the pyridine ring” (Dow AgroSciences LLC, priority 1998, dated 2002)",
  "key": {"[1]": {"test_system": "Erysiphe graminis", "test": "Powdery Mildew of Wheat (ERYSGT)", "assay_type": "in vivo", "details": "wheat (cultivar Monon), inoculated, sprayed at 25 ppm after 48 hours", "description": "Compound Formulation: […] Final treatment volumes were obtained by adding nine volumes 0.05kOO aqueous Tween-20 or Triton X-100, depending upon the pathogen. Powdery Mildew of Wheat (Erysiphe graminis-[…]): Wheat (cultivar Monon) was grown in a soilless peat-based potting mixture (Metromix) until the seedlings were 1-2 leaf (BBCH 12). These plants were then inoculated with Erysiphe graminis by dusting spores from stock plants onto the test plants. After 48 hours the plants were sprayed to run off with the test compound at a rate of 25 ppm and then kept in the greenhouse until disease developed on the untreated control plants. The following table presents the activity of typical compounds of the present invention when evaluated in these experiments. The effectiveness of the test compounds in controlling disease was rated using the following scale: […]"}, "[2]": {"test_system": "Plasmopara viticola", "test": "Downy Mildew of Grape (PLASVI), 96 hour protectant", "assay_type": "in vivo", "details": "grape vines (cultivar Carignane), sprayed at 100 ppm, inoculated after 96 hours (protectant)", "description": "Compound Formulation: […] Final treatment volumes were obtained by adding nine volumes 0.05kOO aqueous Tween-20 or Triton X-100, depending upon the pathogen. Downy Mildew of Grape (Plasmogara viticola-[…]) (96 Hour Protectant): Vines (cultivar Carignane) were grown from seed in a soilless peat-based potting mixture (Metromix) until the seedlings were 10-20 cm tall. These plants were then sprayed to run off with the test compound at a rate of 100 ppm. After 96 hours the test plants were inoculated by spraying with an aqueous sporangia suspension of Plasmopara viticola. The plants were then transferred to the greenhouse until disease developed on the untreated control plants. The following table presents the activity of typical compounds of the present invention when evaluated in these experiments. The effectiveness of the test compounds in controlling disease was rated using the following scale: […]"}},
  "data": [
    {"smiles": "CCOCCNc1nc(OCc2ccccc2C(=NOC)C(=O)NC)c(Cl)cc1Cl", "note": "[Compound 23]", "values": [
      {"measurement": "ERYSGT control of plant disease", "setting": "[1]", "result": "++ (++ = 75-100 % control of plant disease)"},
      {"measurement": "PLASVI control of plant disease", "setting": "[2]", "result": "++ (++ = 75-100 % control of plant disease)"}
    ]},
    {"smiles": "CNC(=O)C(=NOC)c1ccccc1COc1cccc(Sc2cccc(OC)c2)n1", "note": "[Compound 39]", "values": [
      {"measurement": "ERYSGT control of plant disease", "setting": "[1]", "result": "++ (++ = 75-100 % control of plant disease)"}
    ]},
    {"smiles": "CNC(=O)C(=NOC)c1ccccc1COc1nc(OCCOC)c(Cl)cc1Cl", "note": "[Compound 33]", "values": [
      {"measurement": "ERYSGT control of plant disease", "setting": "[1]", "result": "+ (+ = 25-74% control of plant disease)"},
      {"measurement": "PLASVI control of plant disease", "setting": "[2]", "result": "++ (++ = 75-100 % control of plant disease)"}
    ]},
    {"smiles": "CNC(=O)C(=NOC)c1ccccc1COc1cccc(Sc2nnc(SC)s2)n1", "note": "[Compound 12]", "values": [
      {"measurement": "ERYSGT control of plant disease", "setting": "[1]", "result": "− (− = 0-24% control of plant disease)"},
      {"measurement": "PLASVI control of plant disease", "setting": "[2]", "result": "− (− = 0-24% control of plant disease)"}
    ]},
    {"smiles": "CCCOCCOc1cccc(OCc2ccccc2C(=NOC)C(=O)NC)n1", "note": "[Compound 31]", "values": [
      {"measurement": "ERYSGT control of plant disease", "setting": "[1]", "result": "++ (++ = 75-100 % control of plant disease)"},
      {"measurement": "PLASVI control of plant disease", "setting": "[2]", "result": "++ (++ = 75-100 % control of plant disease)"}
    ]},
    {"smiles": "CNC(=O)C(=NOC)c1ccccc1COc1cccc(OCc2ccco2)n1", "note": "[Compound 8]", "values": [
      {"measurement": "ERYSGT control of plant disease", "setting": "[1]", "result": "− (− = 0-24% control of plant disease)"},
      {"measurement": "PLASVI control of plant disease", "setting": "[2]", "result": "++ (++ = 75-100 % control of plant disease)"}
    ]},
    {"smiles": "CNC(=O)C(=NOC)c1ccccc1COc1nc(OCc2ccco2)c(Cl)cc1Cl", "note": "[Compound 3]", "values": [
      {"measurement": "ERYSGT control of plant disease", "setting": "[1]", "result": "+ (+ = 25-74% control of plant disease)"},
      {"measurement": "PLASVI control of plant disease", "setting": "[2]", "result": "++ (++ = 75-100 % control of plant disease)"}
    ]},
    {"smiles": "CCOCCOc1cccc(OCc2c(Cl)cccc2C(=NOC)C(=O)NC)n1", "note": "[Compound 63]", "values": [
      {"measurement": "PLASVI control of plant disease", "setting": "[2]", "result": "++ (++ = 75-100 % control of plant disease)"}
    ]},
    {"smiles": "CNC(=O)C(=NOC)c1ccccc1COc1cccc(Sc2ccccc2OC(F)(F)F)n1", "note": "[Compound 41]", "values": [
      {"measurement": "ERYSGT control of plant disease", "setting": "[1]", "result": "+ (+ = 25-74% control of plant disease)"},
      {"measurement": "PLASVI control of plant disease", "setting": "[2]", "result": "++ (++ = 75-100 % control of plant disease)"}
    ]},
    {"smiles": "CCCOCCOc1cccc(OCc2c(F)cccc2C(=NOC)C(=O)NC)n1", "note": "[Compound 59]", "values": [
      {"measurement": "PLASVI control of plant disease", "setting": "[2]", "result": "++ (++ = 75-100 % control of plant disease)"}
    ]},
    {"smiles": "CCCOc1ccc(Sc2cccc(OCc3ccccc3C(=NOC)C(=O)NC)n2)cc1", "note": "[Compound 87]", "values": [
      {"measurement": "ERYSGT control of plant disease", "setting": "[1]", "result": "++ (++ = 75-100 % control of plant disease)"}
    ]},
    {"smiles": "CCCOCCOc1cccc(OCc2ccccc2C(=NOC)C(=O)NC)n1", "note": "[Compound 36]", "values": [
      {"measurement": "ERYSGT control of plant disease", "setting": "[1]", "result": "+ (+ = 25-74% control of plant disease)"},
      {"measurement": "PLASVI control of plant disease", "setting": "[2]", "result": "++ (++ = 75-100 % control of plant disease)"}
    ]},
    {"smiles": "CNC(=O)C(=NOC)c1ccccc1COc1cccc(SCc2ccc(OC)cc2)n1", "note": "[Compound 34]", "values": [
      {"measurement": "ERYSGT control of plant disease", "setting": "[1]", "result": "++ (++ = 75-100 % control of plant disease)"},
      {"measurement": "PLASVI control of plant disease", "setting": "[2]", "result": "++ (++ = 75-100 % control of plant disease)"}
    ]},
    {"smiles": "CNC(=O)C(=NOC)c1ccccc1COc1cccc(OCCOCc2ccccc2)n1", "note": "[Compound 51]", "values": [
      {"measurement": "ERYSGT control of plant disease", "setting": "[1]", "result": "++ (++ = 75-100 % control of plant disease)"},
      {"measurement": "PLASVI control of plant disease", "setting": "[2]", "result": "++ (++ = 75-100 % control of plant disease)"}
    ]},
    {"smiles": "CCCOC(C)COc1cccc(OCc2ccccc2C(=NOC)C(=O)NC)n1", "note": "(stereo not shown) [Compound 32]", "values": [
      {"measurement": "ERYSGT control of plant disease", "setting": "[1]", "result": "++ (++ = 75-100 % control of plant disease)"}
    ]},
    {"smiles": "CCSCCSc1cccc(OCc2ccccc2C(=NOC)C(=O)NC)n1", "note": "[Compound 50]", "values": [
      {"measurement": "ERYSGT control of plant disease", "setting": "[1]", "result": "− (− = 0-24% control of plant disease)"},
      {"measurement": "PLASVI control of plant disease", "setting": "[2]", "result": "++ (++ = 75-100 % control of plant disease)"}
    ]},
    {"smiles": "CNC(=O)C(=NOC)c1ccccc1COc1cccc(OCC2COC(C)(C(F)(F)F)O2)n1", "note": "(stereo not shown) [Compound 6]", "values": [
      {"measurement": "ERYSGT control of plant disease", "setting": "[1]", "result": "++ (++ = 75-100 % control of plant disease)"}
    ]},
    {"smiles": "CCOc1cccc(Oc2cccc(OCc3ccccc3C(=NOC)C(=O)NC)n2)c1", "note": "[Compound 67]", "values": [
      {"measurement": "PLASVI control of plant disease", "setting": "[2]", "result": "++ (++ = 75-100 % control of plant disease)"}
    ]},
    {"smiles": "CNC(=O)C(=NOC)c1ccccc1COc1cccc(OCC2COC(C(F)(F)F)(C(F)(F)F)O2)n1", "note": "(stereo not shown) [Compound 11]", "values": [
      {"measurement": "PLASVI control of plant disease", "setting": "[2]", "result": "++ (++ = 75-100 % control of plant disease)"}
    ]},
    {"smiles": "CNC(=O)C(=NOC)c1ccccc1COc1cccc(Oc2ccc(OC)cc2)n1", "note": "[Compound 38]", "values": [
      {"measurement": "ERYSGT control of plant disease", "setting": "[1]", "result": "++ (++ = 75-100 % control of plant disease)"}
    ]}
  ]
}
